Results as given in patent US20200087248A1, “Fluoroallylamine Derivative And Use Thereof” (SICHUAN KELUN-BIOTECH BIOPHARMACEUTICAL CO., LTD., priority 2017, published 2020).
Structures can show the parent of a compound that is named as a salt. Where two headings read alike, the source gives them in different places.

Key:
[1] = Stability in liver microsomes, monkey; assay type: in vitro ADME
Procedure: (§1) Stability of Liver Microsomes
(§2) Formulation of a compound reservation solution: the test compound, diclofenac acid, testosterone and propafenone were weighted in appropriate amounts, and calibrated by adding about 1 mL of DMSO to provide a 10 mM reservation solution, then stored in a 4° C. refrigerator;
(§3) Formulation of a compound working solution: 10 μL of the reservation solution were added to 990 μL acetonitrile-water (1:1) to provide a middle solution having a concentration of 100 μM, and 120 μL of the middle solution is further diluted with 2880 μL PBS to provide a 4 μM working solution; […]
(§4) After being incubated for a certain period of time, an equivalent volume of cooled acetonitrile (4° C.) was added to terminate the reaction, and LC-MS/MS was used to determine the concentrations of the compound after being incubated in various liver microsomes for different time periods. With the incubation time as the horizontal ordinate and the natural logarithm of the percentages of the remained compound at each time point as the longitudinal coordinate, a diagram was plotted, wherein the slope was the velocity constant (Ke), and the half-life (T1/2) and clearance rate (CLliver) of the compound were calculated according to the following equation to evaluate the staiblity of the compound in the liver microsomes. […]

[2] = Stability in liver microsomes, rat; assay type: in vitro ADME
Procedure: as §1, §2, §3, §4

[3] = Stability in liver microsomes, human; assay type: in vitro ADME
Procedure: as §1, §2, §3, §4

[4] = Stability in liver microsomes, mouse; assay type: in vitro ADME
Procedure: as §1, §2, §3, §4

Rat PK experiment = assay type: in vivo, Male rats; conditions: male; for AUC(0-inf) / Cmax / half-life: rat blood plasma
Procedure: Male rats were intravenously (iv) and intragastrically (po) administered the test compounds respectively, and LC-MS/MS was used to measure the blood plasma concentration of the compound in the bodies of the rat. The main pharmacokinetic parameters were calculated by utilizing WinNonlin 6.3 software.

[5] = target: T1, VAP-1 in abdominal fat of mice (Mus musculus, UniProt O70423); experiment: Inhibition of VAP-1 enzymatic activity at different dose and time conditions (ex-vivo); assay type: in vivo, BALBc mice; conditions: for Inhibition rate against the enzymatic activity of VAP-1 in abdominal fat of mice: hydrochloride; for inhibition at 0.5 mg/kg / inhibition at 3 mg/kg: mouse, po, read-out: Inhibition rate against the enzymatic activity of VAP-1 in abdominal fat of mice
T1 construct: abdominal fat was collected and homogenized; from tissue; host or cells: abdominal fat of BALBc mice (homogenate supernatant)
T1 sequence (O70423 1-765): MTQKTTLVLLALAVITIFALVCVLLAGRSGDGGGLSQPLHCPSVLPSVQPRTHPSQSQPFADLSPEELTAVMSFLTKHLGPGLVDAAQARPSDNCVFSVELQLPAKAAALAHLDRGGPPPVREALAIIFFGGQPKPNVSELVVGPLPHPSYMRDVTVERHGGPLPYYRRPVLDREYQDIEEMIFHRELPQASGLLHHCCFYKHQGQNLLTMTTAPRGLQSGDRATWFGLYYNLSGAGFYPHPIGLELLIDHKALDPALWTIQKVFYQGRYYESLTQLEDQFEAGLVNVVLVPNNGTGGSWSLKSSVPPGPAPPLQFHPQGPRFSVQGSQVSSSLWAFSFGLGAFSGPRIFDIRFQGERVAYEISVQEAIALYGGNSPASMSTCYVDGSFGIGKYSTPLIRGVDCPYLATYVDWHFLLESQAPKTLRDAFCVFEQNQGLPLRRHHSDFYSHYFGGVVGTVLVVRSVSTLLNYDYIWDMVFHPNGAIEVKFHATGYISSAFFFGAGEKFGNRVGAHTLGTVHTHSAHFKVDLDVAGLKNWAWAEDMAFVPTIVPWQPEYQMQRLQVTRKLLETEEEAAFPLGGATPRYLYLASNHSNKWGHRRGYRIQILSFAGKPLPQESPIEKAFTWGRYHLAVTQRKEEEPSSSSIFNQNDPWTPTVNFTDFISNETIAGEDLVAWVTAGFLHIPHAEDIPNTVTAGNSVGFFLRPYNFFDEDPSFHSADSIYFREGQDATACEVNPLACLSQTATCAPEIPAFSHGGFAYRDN
Procedure: Inhibition Experiment Against the Enzymatic Activity at Different Does and Time Conditions (ex-vivo)
Tissue homogenate buffer solution (20 mM HEPES, pH 7.2, 1 mM EDTA, 250 mM sucrose, PMSF 0.2 mM)
Reaction buffer solution: 50 mM PBS, pH 7.4
Test kit: Amplex® Red Monoamine Oxidase Assay, Manufacturer: ThermoFisher
BALBc mice were orally administrated with different doses (0.5 mg/kg, 3 mg/kg) of the test compound, and the vehicle group was used as the control group. Abdominal fat was collected at 6 hrs, 10 hrs, 24 hrs respectively, and homogenized with a pre-cooled homogenate buffer solution, and thereafter, the supernatant was collected and stored for use.
A test sample was diluted with the reaction buffer solution, and respectively added with the inhibition solution A 1 μM Clorgyline+1 μM pargylin, to inhibit the activities of MAO-A and MAO-B, and the inhibition solution B: 1 μM Clorgyline+1 μM Pargylin+1 μM Mofegiline as the Wank control, and after being incubated at room temperature, 500 μM benzylamine hydrochloride, 1 U/mL HRP and 200 μM Amplex Red reagent were added to start the reaction. By referring to the method in “Experiment of inhibiting the enzymatic activity of VAP-1”, the relative activities of each dose groups were calculated, wherein ratio of the fluorescent signal to reaction time in the linear range is the reaction rate, and the vehicle group is the positive control, thereby to study the inhibition of the compound against the enzymatic activity of VAP-1 in abdominal fat of mice.

[6] = Stability in liver microsomes, dog; assay type: in vitro ADME
Procedure: as §1, §2, §3, §4

SMILES: CC1(C)Cc2cc(OC/C(=C/F)CN)ccc2C(=O)N1 [HC38-E, (E)-6-((2-(aminomethyl)-3-fluoroallyl)oxy)-3,3-dimethyl-3,4-dihydroisoquinolin-1(2H)-one hydrochloride]
- T1/2 in liver microsomes ([1]; Monkey): long half-life
- half-life ([1]; monkey, liver microsomes, read-out: T1/2 in liver microsomes): 20.8 h
- T1/2 in liver microsomes ([2]; Rat): long half-life
- half-life ([2]; rat, liver microsomes, read-out: T1/2 in liver microsomes): 14.2 h
- T1/2 in liver microsomes [3]: long half-life
- half-life ([3]; liver microsomes, read-out: T1/2 in liver microsomes): 44.6 h
- T1/2 in liver microsomes ([4]; Mouse): long half-life
- half-life ([4]; mouse, liver microsomes, read-out: T1/2 in liver microsomes): 13.8 h
- bioavailability (Rat PK experiment; plasma, rat, po 3 mg/kg): 89.9%
- AUC(0-inf) (Rat PK experiment; iv 3 mg/kg): 1160 ± 120 ng·h/mL
- Cmax (Rat PK experiment; iv 3 mg/kg): 1040 ± 181 ng/mL
- half-life (Rat PK experiment; iv 3 mg/kg): 1.43 ± 0.15 h
- AUC(0-inf) (Rat PK experiment; po 3 mg/kg): 1040 ± 129 ng·h/mL
- Cmax (Rat PK experiment; po 3 mg/kg): 343 ± 24 ng/mL
- half-life (Rat PK experiment; po 3 mg/kg): 1.37 ± 0.01 h
- Inhibition rate against the enzymatic activity of VAP-1 in abdominal fat of mice ([5]; 0.5 mg/kg oral, 6 hours): 95.8 ± 3.6%
- Inhibition rate against the enzymatic activity of VAP-1 in abdominal fat of mice ([5]; 3.0 mg/kg oral, 10 hours): 95.3 ± 1.9%
- inhibition at 0.5 mg/kg ([5]; 0.5 mg/kg oral, 6 hours): ~95%
- inhibition at 0.5 mg/kg ([5]; 0.5 mg/kg oral, 10 hours): 90.3 ± 3.2%
- inhibition at 0.5 mg/kg ([5]; 0.5 mg/kg oral, 24 hours): 68.1 ± 7.4%
- inhibition at 3 mg/kg ([5]; 3.0 mg/kg oral, 6 hours): 96.4 ± 5.6%
- inhibition at 3 mg/kg ([5]; 3.0 mg/kg oral, 10 hours): ~95%
- inhibition at 3 mg/kg ([5]; 3.0 mg/kg oral, 24 hours): 78 ± 9.3%
- T1/2 in liver microsomes ([6]; Dog): long half-life
- half-life ([6]; dog, liver microsomes, read-out: T1/2 in liver microsomes): 118 h
